# Reference: a melting point compilation (Tetko et al.; mined from patent text by program, amines drawn as free bases though some values may be those of a salt)
row,melting point [°C],SMILES
1,98 to 99,CCOC(=O)c1cc2ccc(-c3ccc(C)cc3)cc2n1C
2,106 to 108,O=C(O)c1ccc(Cl)cc1C(F)(F)F
3,229 to 230,O=C(c1ccc(-c2ccncn2)cc1)N1CCN(S(=O)(=O)c2cc3cc(Cl)ccc3[nH]2)CC1
4,79 to 82,COC(=O)/C=C/C(=O)O[C@@H](C)C(=O)N1CCOCC1
5,135,CSc1ccc(-c2nn(CC3CC3)c(=S)cc2-c2ccc(Cl)cc2)cc1
6,77 to 79,Cc1nc(Cl)c([N+](=O)[O-])c(NC(C)C)n1
7,106 to 108,O=C1CC(C(=O)O)(c2ccc(F)cc2)c2ccccc21 (stereo unspecified)
8,232 to 233,c1cnc2[nH]cc(CN3CCN(c4ccc5[nH]ccc5c4)CC3)c2c1
9,110 to 114,Nc1nccnc1C=O
10,165 to 166,C#CCc1c(C)nc2c(NCc3c(C)cccc3NC(=S)NC(=O)c3ccccc3)cccn12
11,53 to 54,CCc1ccc(CCOc2ccc([N+](=O)[O-])cc2)nc1
12,228 to 230,COC(=O)c1ccc(C(=O)NS(=O)(=O)c2ccc(C(=O)NCCc3ccccc3)cc2)cn1
13,196,CC(C)(C)C(O)Cn1ncn(-c2ccc(N3CCN(c4ccc(O[Si](C)(C)C(C)(C)C)cc4)CC3)cc2)c1=O (stereo unspecified)
14,80 to 82,Nc1nc2c(NCc3ccccc3)ncnc2n1C1OC(CO)C(O)C1O (stereo unspecified)
15,144 to 145,O=[N+]([O-])c1ccc(CP2(=O)OCCO2)cc1
16,67 to 68,Cc1oc(-c2ccccc2)nc1COc1ccc(CON=C(CCCCCCCC(=O)O)c2ccccc2)cc1
17,175 to 176,O=C(O)c1cccc(-c2cccc3nc(Cc4cccc(C(F)(F)F)c4)oc23)c1
18,182 to 184,CCOC(=O)Cc1ccc2c(c1)NC(NC(C)C)=NS2(=O)=O
19,184,Cc1csc(NCCN2CCC(Nc3nc4ccccc4n3Cc3ccc(F)cc3)CC2)n1
20,153 to 154,COC(=O)C=Cc1cc2ccccc2nc1Cl
21,127 to 129,Cc1cccc(O[C@@H]2CCNC[C@H]2O)c1C (relative stereo)
22,68 to 70,COC(=O)c1cccc([N+](=O)[O-])c1Cl
23,190 to 191,CCCc1nc2c(N)nc3cc(Oc4ccc(N)cc4)ccc3c2n1CC(C)C
24,60 to 61,ClCc1cnoc1-c1cc(Cl)c(Cl)s1

row,melting point [°C],SMILES
1,67 to 69,CC1(C)c2ccccc2C(C)(C)C1(CC#N)SN=O
2,158 to 162,COC(=O)COc1ccc(CC2SC(=O)N(C(c3ccccc3)(c3ccccc3)c3ccccc3)C2=O)cc1 (stereo unspecified)
3,190 to 192,O=C1N(N2CCOCC2)c2ccccc2C1(Cc1ccncc1)c1ccccc1 (stereo unspecified)
4,213,CCOc1ccccc1C1CC(C(C)(C)C)=NN1c1ccc(C(=O)O)cc1 (stereo unspecified)
5,151 to 152,O=c1[nH][nH]c(C(F)(F)F)c1Cc1ccc(Cl)cc1
6,126 to 128,Cc1cc2c(s1)N(C)c1ccccc1N=C2N1CCN(C)CC1
7,132,Nn1c(C2CC2)cc(-c2ccc(C(F)(F)F)cc2)cc1=O
8,171 to 174,CN(C)CCCC1CCN(C=Nc2ccc3c(c2)C(=O)c2ccc(N=CN4CCC(CCCN(C)C)CC4)cc2C3=O)CC1
9,294,Cc1nc2sccn2c1C1=NNC(=O)OC1
10,123,CC(=O)Nc1ccc(OC(F)(F)F)cc1Br
11,104 to 105,Cc1nc(CC2CCN(c3ccc(F)cc3)CC2)nc(C(=O)NCC(=O)O)c1O
12,178 to 180,CC(C)(C)OC(=O)N[C@@H](CC(=O)OCc1ccccc1)C(=O)NCCc1ccc(OCC(=O)OCc2ccccc2)cc1
13,210 to 213,COc1cc2c(cc1C(F)(F)F)N(C(=O)Nc1ccc(Cl)c(-c3cccnc3)c1)CC2
14,155 to 157,O=c1oc2cc(Br)ccc2c(O)c1[N+](=O)[O-]
15,266 to 268,Cn1c([N+](=O)[O-])cnc1-c1nnc(N)s1
16,135,O=c1sc(CO)c(C(F)(F)F)n1-c1ccccc1
17,235,CCCC(=O)Nc1n[nH]c2cc(-c3ccc(O)cc3)ccc12
18,220 to 223,c1ccc2c(c1)CN(NC1=NCCO1)C2
19,128 to 130,CCOCCc1c(N=[N+]=[N-])nc(NC(=O)NC)nc1-c1ccccc1
20,310 to 318,CC1(C)C(=O)Nc2cc([N+](=O)[O-])c(NC(=O)c3ccncc3)cc21
21,254 to 257,O=C1CCCC2=C1C(c1ccc(F)c(Br)c1)C1=C(CCCC1)N2 (stereo unspecified)
22,48 to 50,CCOC(C)Oc1ccc2c(c1C=O)OCO2 (stereo unspecified)
23,90,N#CCCn1c(-c2ccccc2)cc2ccccc21
24,228,CCn1cc(C(=O)O)c(=O)c2cc(Cl)c(N3CCN(Cc4ccccc4)CC3)cc21

row,melting point [°C],SMILES
1,203 to 209,Cc1ccc(C2(O)c3ccccc3C(=O)c3ccccc32)cc1
2,180 to 181,Cc1nc2ccccc2n1C(C)(C)CO
3,134 to 142,Cc1cccc2sc(Sc3ccc4c(c3)CC[C@H]3N(C)C(=O)CC[C@]43C)nc12
4,133 to 134,CCOc1nn(Cc2cncc(OCc3nc(-c4ccccc4)oc3C)c2)cc1CCC(=O)O
5,226 to 228,Cc1nc(Sc2ccc(C(=O)O)cn2)sc1CC(=O)O
6,243 to 245,Cc1ccc(C(=O)C2=C(O)C(=O)N(c3ccc(C)nn3)C2c2cccc(OC(C)C)c2)cc1 (stereo unspecified)
7,59,CCCCCCCCOc1ccc(CC(=O)[C@H]2CC[C@H](CCCCC)CC2)c(F)c1F
8,155 to 156,CCC(=O)N[C@@H](C)C(=O)N1CCC[C@H]1C(=O)NC1CCCCCC1
9,180,Nc1ccc(OS(=O)(=O)c2ccc(NCCO)cc2)cc1[N+](=O)[O-]
10,173 to 177,COc1cccc(-c2cc(Cl)cc3c2OC(C(F)(F)F)C(C(=O)O)=C3)c1 (stereo unspecified)
11,92,CC(C)(C)OC(=O)NCC(O)CNC(=O)OC(C)(C)C
12,120,CC(CN1CCCC1)N1c2ccccc2Sc2ccc(C(=O)NCC3CCCCC3)cc21 (racemic)
13,134 to 136,CCCOc1ccccc1-c1cccc(=O)[nH]1
14,113 to 134,Cc1ccc(S(=O)(=O)n2ccc3c(CBr)cccc32)cc1
15,191 to 192,FC(F)C(F)(F)Oc1cccc(Nc2nccc(-c3ccncc3)n2)c1
16,> 300,CC(=O)OCC1OC(n2c3ncccc3c3c4c(c5c6cccnc6[nH]c5c32)C(=O)N(C)C4=O)C(OC(C)=O)C(OC(C)=O)C1OC(C)=O (stereo unspecified)
17,203,Cc1nc(C)c(Cl)c(NCc2ccc(Oc3ccc4ncc([N+](=O)[O-])n4n3)cc2)n1
18,195 to 196,CCC(C(=O)Nc1c(C)cccc1C)N1C(=O)c2ccccc2C1=O (stereo unspecified)
19,224 to 225,Nc1nc2c(c(Nc3cccc(Cl)c3)n1)-c1ccccc1C2
20,228 to 229,CC(C)(C)NC(=NC#N)Nc1cnc2ccccc2c1
21,206,N#Cc1c(N)nc2ccc(N3CCN(Cc4ccccc4)CC3)cc2c1Cl
22,205,COc1ccc(-c2csc(NN=Cc3cn(Cc4ccc(Cl)cc4Cl)c4ccccc34)n2)cc1OC
23,137,Cc1c(N)cccc1OC1CCN(C(=O)OC(C)(C)C)C1 (stereo unspecified)
24,124 to 130,CC(C)N1C(=O)N=C(SCc2ccccc2)NS1(=O)=O

row,melting point [°C],SMILES
1,155 to 156,CCOC(=O)c1cc(=O)c2cc(Oc3ccccc3)c(NS(C)(=O)=O)cc2o1
2,174 to 175,N#Cc1cnc2c(sc3ccccc32)c1Oc1ccc(Cl)cc1F
3,179,CC(=O)OC1CSC(Oc2ccc(-c3ccncc3)nc2Cl)C(OC(C)=O)C1OC(C)=O (stereo unspecified)
4,77 to 79,COc1cc2c(cc1OC)C(C(C)C)C(=O)CC2 (stereo unspecified)
5,232 to 235,CC(C)Cc1c2c(nn1Cc1ccccc1)c(N)nc1ncccc12
6,90 to 92,COc1cc(C(C)=O)c(O)cc1N1CCN(Cc2ccccc2)CC1
7,147,CC1=C(CNC(=O)NCCCN(C)C)c2cc(F)ccc2/C1=C\c1ccc(S(C)(=O)=O)cc1
8,121 to 122,CCCCc1nn(-c2ccc(C(F)(F)F)cn2)cc1CCCOc1c(CC(=O)O)cccc1OC
9,126 to 128,CCOC(=O)C(C)(C)NC(=O)c1cccc(C2=NC(C)(C)Cc3c(CC#N)c(OC)c4c(c32)CC(C)(C)O4)c1
10,42 to 43,CC(=O)c1cccn1Cc1ccco1
11,128 to 132,O=C(c1ccc(-c2ccccc2)cc1)c1cccnc1Cl
12,95 to 95.5,O=[N+]([O-])c1ccc(NCCc2ccccc2)c(S(=O)(=O)CCO)c1
13,165 to 167,Oc1ccc2c(ccc3ccccc32)c1
14,199 to 200,N#CCCNC(=O)c1cccc(-c2cc3c(ccn3Cc3ccc(Cl)cc3Cl)cn2)c1
15,43 to 44,C=CCc1cc(Cl)cc2nc(Cc3ccc(OC)c(OC4CCCC4)c3)oc12
16,172 to 173,C#CCOc1cc(C(=O)O)cc(N)c1-c1ccccc1
17,186 to 188,CCCn1cc(C(=O)NCc2ccc(Cl)cc2)c(=O)c2cc(CCl)sc21
18,160 to 161,CC(=O)Nc1nc2c(Oc3cc(-c4ccc(C(F)(F)F)cc4N)ncn3)cccc2s1
19,125 to 126,COC(=O)c1cccc2c(CCl)c(C)sc12
20,221 to 223,COC(=O)Cn1cc([C@H]2CCC3C4CC=C5C[C@@H](O)CC[C@]5(C)C4CC[C@@]32C)nn1 (stereo partly specified)
21,218 to 220,COc1ccc(S(=O)(=O)N(C)CP(=O)(O)O)cc1N
22,177,CC(NC(=O)c1cc(Cl)cc(Br)c1N)C1CC1 (stereo unspecified)
23,94 to 96,Cn1nc(Cl)c(C(=O)Cc2ccccc2)c1Cl

row,SMILES,melting point [°C]
1,NP(N)(=S)NC1CCCCC1,148 to 150
2,COc1ccc2c3c([nH]c2c1)CCC(N(C)C)C3 (stereo unspecified),100 to 105
3,Cc1ccc([C@@H]2C[C@H]3C=C(c4n[nH]c(-c5ccc(F)cc5)c4-c4ccncc4)CCN3C2)cc1,222 to 225
4,OCc1c(Cl)c(Cl)c(Cl)c(Cl)c1Cl,195 to 196
5,CN1CCC23CC(=O)CCC2(O)C1Cc1cccc(O)c13 (stereo unspecified),233 to 236
6,O=C(NC(=S)NC1CCN(CCc2c[nH]c3ccccc23)CC1)c1ccccc1,212 to 215
